The values below are quoted from earlier work in publication PMC12202533, “Mechanistic Insights and Anti-cancer Activity of 2H-benzo[b][1,4]oxazin-3(4H)-one Linked 1,2,3-Triazoles in Human Cancer Cells” (Frontiers in Pharmacology, 2025).

One data set relates to HeLa cells. The arrangement: method as in Srinivas Reddy et al., 2022. Particulars: ref Srinivas Reddy et al., 2022; cited from earlier work.
Another data set concerns HeLa. The arrangement: method as in Yan et al., 2019. Conditions: ref Yan et al., 2019; cited from earlier work.
The next data set concerns A549 cells. More on the design: method as in Yan et al., 2019. Particulars: ref Yan et al., 2019; cited from earlier work.
A further data set concerns PI3Kα. The arrangement: method as in Yan et al., 2019. Particulars: ref Yan et al., 2019; read-out: IC50 against PI3Kα; cited from earlier work.
On the set-up of data set [1]: method as in Yan et al., 2019. Particulars: mice; ref Yan et al., 2019; cited from earlier work.
The next data set deals with A549. The arrangement: method as in Rajitha et al., 2011. Particulars: ref Rajitha et al., 2011; cited from earlier work.
The test system of the next data set is MV4-11. The arrangement: method as in Rajitha et al., 2011. Conditions: ref Rajitha et al., 2011; cited from earlier work.
The test system of another data set is DLD-1. More on the design: method as in Rajitha et al., 2011. Particulars: ref Rajitha et al., 2011; cited from earlier work.
In data set [2] the test system is topoisomerase II. The arrangement: method as in El Hamaky et al., 2024. Particulars: ref El Hamaky et al., 2024; cited from earlier work.
For a further data set, the system named is topoisomerase I. More on the design: method as in El Hamaky et al., 2024. Conditions: ref El Hamaky et al., 2024; cited from earlier work.
The next data set concerns tubulin polymerization. The arrangement: method as in El Hamaky et al., 2024. Particulars: ref El Hamaky et al., 2024; cited from earlier work.
Data set [3] deals with HCT116 cells. The arrangement: method as in El Hamaky et al., 2024. Conditions: ref El Hamaky et al., 2024, cited from earlier work.
For data set [4], the system named is HCT116 cells. The arrangement: method as in Mohammed et al., 2022. Conditions: MTT assay; ref Mohammed et al., 2022; cited from earlier work.
Data set [5] concerns the target topoisomerase II. More on the design: method as in Mohammed et al., 2022. Conditions: ref Mohammed et al., 2022; cited from earlier work.

Like-named read-outs stand apart in the source and are kept apart here.

Take `N#Cc1ccc(-n2nnc3c2-c2cc(Cl)c4cccnc4c2OC3)cc1` [compound 9]: the half-maximal inhibitory concentration (IC50) in the data set with HeLa cells was 3.38 ± 1.14 µM.

As for `COc1ccc(N2C(=O)COc3ccc(-c4cnc(OC)c(NS(=O)(=O)c5ccc(F)cc5)c4)cc32)cc1` [compound 6], the IC50 in the data set with HeLa was 1.35 µM; in the data set on A549 cells it was 1.22 µM; in the data set with PI3Kα, 0.00063 µM. Further, the oral bioavailability entry in [1] is “good”.

In the case of `O=C1COc2ccc(-c3[nH]c(-c4ccc(C(F)(F)F)cc4)nc3-c3ccccc3)cc2N1` [compound 5], the “viability of A549 cells” value in the data set on A549 is “significantly reduced”. In the data set on MV4-11, the “viability of MV4-11 cells” value was “significantly reduced”. Besides, the “viability of DLD-1 cells” value with DLD-1 is on record as “significantly reduced”.

For `Cc1ccc(NC(=O)Cn2cc(CSc3nc4ccccc4c(=O)n3-c3ccccc3)nn2)cc1` [compound 8], in the data set on topoisomerase II [2], the “topoisomerase II inhibition” value is given as “significantly inhibited”. Moreover, the “topoisomerase I inhibition” value with topoisomerase I is recorded as “significantly inhibited”. In addition, in the data set on tubulin polymerization, the tubulin polymerization inhibition entry is reported as “significantly inhibited”. Moreover, in the data set with HCT116 cells [3] (HCT116), the γ-H2AX protein expression result is reported as “upregulated”. Besides, the IC50 in the data set on HCT116 cells [3] is 4.87 ± 0.78 µM.

Take `COc1ccc(/C=C/C(=O)c2ccc(-n3cc(CN4CCN(c5cc6c(cc5F)c(=O)c(C(=O)O)cn6C5CC5)CC4)nn3)cc2)cc1OC` [compound 10]: the IC50 in the data set with HCT116 cells [4] is 10.6 ± 0.8 µM; on topoisomerase II [5], 19.7 ± 0.79 µM.
